According to patent publication US20090285834A1, “NOVEL MEMORY CTL INDUCTION POTENTIATOR” (DAINIPPON SUMITOMO PHARMA CO., LTD., priority 2005, published 2009):

What was measured:
EG7 (OVA-expressing EL4) = format: in vivo, mouse (C57BL/6NCrj); settings: with peptide vaccine; EG7 transplanted 21 days after peptide administration; followed to day 28; compared with PBS; FIG. 5
Description: Twenty-one days after peptide administration, 5×10^6 EG7 (OVA-expressing EL4: ATCC) suspended in 100 μL PBS was intradermally transplanted at the right flank using a 27 G injection needle after shaving. Tumor diameters (minimum diameter, maximum diameter) were measured using electronic calipers twice a week from 1 week to 28 days after EG7 transplantation, and tumor volumes were calculated.

cytokine production = settings: in vivo; cited from earlier work
lymphocytes = settings: in vivo; cited from earlier work

Row | Compound | tumor growth suppression (tumor volume) (EG7 (OVA-expressing EL4)) | time from which cytokine production is exhibited after administration (cytokine production) | time at which the reduction in lymphocytes reaches a peak (lymphocytes)
1 | CCOCc1nc2c(N)nc3ccccc3c2n1CC(C)(C)O [R848] | a slight suppression against proliferation was observed | ≥ 1 h | –
2 | O=P1(N(CCCl)CCCl)NCCCO1 (stereo not drawn) [cyclophosphamide] | – | – | 3 to 4 days
